2 compounds from patent US20030119719A1, “Use of endothelin conjugates in therapy, new endothelin conjugates, agents that contain the latter, and process for their production” (priority 1996, published 2003) can be followed below.

One series has as its system common carotid artery. In words: Local application via administration catheter in the denuded common carotid artery, dynamic scintigraphy and autoradiography. Conditions: for course of the locally administered activity at the administration site after blood flow is restored: examination period of 1 hour, dynamic scintigrams, right common carotid artery. The source says:
b) Local Application of the Tc-99m Complex of NH2-Asp-Gly-Gly-Cys-Gly-Cys-Phe-(D-Trp)-Leu-Asp-Ile-Ile-Trp-OH as well as Tc-99m-pertechnetate in the Common Carotid Artery of White New Zealand Rabbits
In anesthetized white New Zealand rabbits (3.5 kg), the right common carotid artery was opened up. A 2 F balloon catheter (from the Baxter Company) was inserted cranially through a cut, and a vascular area approximately 5 cm long was denuded twice with 0.9% saline after the catheter was inflated. Then, an administration catheter (coronary perfusion/infusion catheter, dispatch 3.0, Baxter Company) was fed to the above-denuded area. […] Then, the catheter was removed, and the blood flow after closure of the common carotid artery dextra was restored using a suture. Dynamic scintigrams were prepared over a period of 1 hour with the aid of a commercial gamma camera. Then, the animals were sacrificed, both carotids were removed, and an autoradiography was prepared.

The next series concerns arteriosclerotic plaque. Description: In vivo and in vitro concentration in WHHL rabbits (gamma camera imaging, autoradiography of the aorta). Conditions: 2 mCi (1 ml) via an ear vein. The procedure:
In Vivo and In Vitro Concentration of the ^99mTc-Complex of […] in WHHL Rabbits 2 mCi (1 ml) of the […]Tc-complex that is produced according to 5a) is administered to an anesthetized WHHL rabbit (Rompun/Ketavet 1:2) via an ear vein. WHHL rabbits have a high LDL level in the blood because of a deficient or defective LDL receptor and therefore create spontaneously arteriosclerotic vascular alterations. During the test period of 5 hours after the administration, static images of various exposure times and of various positions were produced with a gamma camera ([…]). 5 hours after the administration, the rabbit was sacrificed, and both an autoradiography of the aorta and a Sudan III coloring were carried out.

In the case of `[O]=[99Tc](=[O])(=[O])[O-]` [Tc-99m pertechnetate], the “site of accumulation after being flushed from the vessel wall” value in the series on common carotid artery (anterior summation scintigram 0-1 hour after local administration (FIG. 1)) was “accumulates in the salivary glands as well as the thyroid”. Besides, the figures for the “course of the locally administered activity at the administration site after blood flow is restored” value with common carotid artery and with common carotid artery (listed as Tc-99m-pertechnetate) were “flushed from the vessel directly after the blood flow was regenerated” and “flushed from the vessel wall immediately after the blood flow is restored”, respectively.

With “^99mTc Complex of Asp-Gly-Gly-Cys-Gly-Cys-Phe-(D-Trp)-Leu-Asp-Ile-Ile-Trp”, in the series with arteriosclerotic plaque, the “time at which arteriosclerotic plaque in the area of the aortic arch could be visualized in vivo” value is on record as 10 minutes p.i.
